Reference: patent publication US11607446B2, “Personalized immunotherapy against several neuronal and brain tumors” (Immatics Biotechnologies GmbH, priority 2013, dated 2023)

Test system: CD8+ T cells
Test: In vitro immunogenicity of HLA-A*24 class I peptides: in vitro T-cell priming with aAPCs loaded with peptide/MHC complexes and anti-CD28 antibody, pMHC multimer readout
Format: cell-based, human
Details: given as a class symbol; for Donors: share of positive donors in the in vitro immunogenicity experiments; for Wells: share of positive wells in the in vitro immunogenicity experiments
Procedure: In order to obtain information regarding the immunogenicity of the TUMAPs of the present invention, we performed investigations using an in vitro T-cell priming assay based on repeated stimulations of CD8+ T cells with artificial antigen presenting cells (aAPCs) loaded with peptide/MHC complexes and anti-CD28 antibody.
Isolated CD8+ lymphocytes or PBMCs were incubated until use in T-cell medium (TCM) consisting of RPMI-Glutamax (Invitrogen, Karlsruhe, Germany) supplemented with 10% heat inactivated human AB serum (PAN-Biotech, Aidenbach, Germany), 100 U/ml Penicillin/100 μg/ml Streptomycin (Cambrex, Cologne, Germany), 1 mM sodium pyruvate (CC Pro, Oberdorla, Germany), 20 μg/ml Gentamycin (Cambrex). 2.5 ng/ml IL-7 (PromoCell, Heidelberg, Germany) and 10 U/ml IL-2 (Novartis Pharma, Nurnberg, Germany) were also added to the TCM at this step. Generation of pMHC/anti-CD28 coated beads, T-cell stimulations and readout was performed in a highly defined in vitro system using four different pMHC molecules per stimulation condition and 8 different pMHC molecules per readout condition. All pMHC complexes used for aAPC loading and cytometric readout were derived from UV-induced MHC ligand exchange with minor modifications. In order to determine the amount of pMHC monomer obtained by exchange we performed streptavidin-based sandwich ELISAs according to (Rodenko et al., 2006). The purified co-stimulatory mouse IgG2a anti human CD28 Ab 9.3 (Jung et al., 1987) was chemically biotinylated using Sulfo-N-hydroxysuccinimidobiotin as recommended by the manufacturer (Perbio, Bonn, Germany). Beads used were 5.6 μm diameter streptavidin coated polystyrene particles (Bangs Laboratories, Illinois, USA).
800.000 beads/200 μl were coated in 96-well plates in the presence of 4×12.5 ng different biotin-pMHC, washed and 600 ng biotin anti-CD28 were added subsequently in a volume of 200 μl. Stimulations were initiated in 96-well plates by co-incubating 1×10^6 CD8+ T cells with 2×10^5 washed coated beads in 200 μl TCM supplemented with 5 ng/ml IL-12 (PromoCell) for 3-4 days at 37° C. Half of the medium was then exchanged by fresh TCM supplemented with 80 U/ml IL-2 and incubating was continued for 3-4 days at 37° C. This stimulation cycle was performed for a total of three times, with 12 individual wells per condition For the pMHC multimer readout using 8 different pMHC molecules per condition, a two-dimensional combinatorial coding approach was used as previously described (Andersen et al., 2012) with minor modifications encompassing coupling to 5 different fluorochromes. Finally, multimeric analyses were performed by staining the cells with Live/dead near IR dye (Invitrogen, Karlsruhe, Germany), CD8-FITC antibody clone SK1 (BD, Heidelberg, Germany) and fluorescent pMHC multimers. For analysis, a BD LSRII SORP cytometer equipped with appropriate lasers and filters was used. Peptide specific cells were calculated as percentage of total CD8+ cells. Evaluation of multimeric analysis was done using the FlowJo software (Tree Star, Oregon, USA). In vitro priming of specific multimer+ CD8+ lymphocytes was detected by comparison to irrelevant control stimulations.
Exemplary flow cytometry results after TUMAP-specific multimer staining for two peptides of the invention are shown in FIG. 4 together with corresponding negative controls.

Substance	Donors	Wells
YYHFIFTTL (listed as Homo sapiens) [GRIK3-002]	++++ (>70% = ++++)	+ (<20% = +)
YYLDKSVSI (listed as Homo sapiens) [SCARA3-002]	++ (20%-49 % = ++)	+ (<20% = +)
YYPGVILGF (listed as Homo sapiens) [TMEM255A-001]	++ (20%-49 % = ++)	+ (<20% = +)
YYQIRSSQL (listed as Homo sapiens) [EXOC7-001]	++ (20%-49 % = ++)	+ (<20% = +)
YYTVRNFTL (listed as Homo sapiens) [PTP-014]	++ (20%-49 % = ++)	+ (<20% = +)
ZNFS3-001 (RYLPSSVFL; listed as Homo sapiens)	+++ (50%-70% = +++)	++ (20%-49 % = ++)
